Assay results as given in paper PMC9785606, “Design and Synthesis of Novel Phenylahistin Derivatives Based on Co-Crystal Structures as Potent Microtubule Inhibitors for Anti-Cancer Therapy” (Marine Drugs, 2022).
Marks after values point to notes of the source that are not given here.

Tests used:
[1] = test system: human lung cancer NCI-H460 cell line; assay: MTT cytotoxicity assay, lung cancer NCI-H460 cell line; format: cell-based; details: Homo sapiens, NCI-H460, 72 h, mean ± SD
Protocol: (§1) Human cancer cell lines (lung cancer NCI-H460 cell line, pancreatic cancer BxPC-3 cell line, colon cancer HT-29 cell line) were purchased from American Type Cell Culture Collection (ATCC, Manassas, VA, USA). Cells were maintained in RPMI-1640 medium supplemented with 10% (v/v) heat-inactivated fetal bovine serum, penicillin-streptomycin (100 U/mL-100 […]) at 37 °C in a humidified atmosphere (5% CO2–95% air). All tested derivatives were dissolved in 100% cell culture grade DMSO. Cells (3 × 10^3 per well) were seeded in 96-well plates for 24 h. Then, cells were treated with the tested compounds in six concentrations for 72 h. Cell viability was assessed by MTT assay. The absorbance at 490 nm was measured with a Microplate Reader (Molecular Devices, Silicon Valley, CA, USA). The data were analyzed by Origin 8.5 (OriginLab, Northampton, MA, USA).

[2] = test system: pancreatic cancer BxPC-3 cell line; assay: MTT cytotoxicity assay, pancreatic cancer BxPC-3 cell line; format: cell-based; details: Homo sapiens, 72 h, mean ± SD
Protocol: as §1

[3] = test system: colon cancer HT-29 cell line; assay: MTT cytotoxicity assay, colon cancer HT-29 cell line; format: cell-based; details: Homo sapiens, 72 h, mean ± SD
Protocol: as §1

[4] = test system: microtubules in NCI-H460 cells; assay: Immunofluorescence assay of microtubules (β-tubulin/DAPI staining); format: cell-based, human; details: 2 nM, 24 h
Protocol: To further explore the effect of phenylahistin derivatives 1 and 15p on microtubules in cancer cells, an immunofluorescence assay was performed. […] The inhibitory activities were consistent with the previously shown anti-proliferative activities.
NCI-H460 cells were seeded in 24-well plate (with coverslips plated) at the density of 5 × 10^4 cells. […] Then, cells were fixed with 4% cold paraformaldehyde at 4 °C for 15 min and then permeabilized in 0.05% Triton X-100 for 10 min. The cells were blocked in 1% BSA for 30 min. Microtubules were detected by incubation with a monoclonal anti-β-tubulin (β-tubulin antibody was obtained from Servicebio, Wuhan, China.) at 4 °C for 12 h. Subsequently, the cells were washed with PBS and incubated with a FITC-conjugated anti-mouse IgG antibody. Nuclei were stained with DAPI (G1012, Servicebio, Wuhan, China). The coverslips were visualized under fluorescence microscope (Nikon Eclipse C1, Nikon, Japan) and an image-forming system (Nikon DS-U3, Nikon, Tokyo, Japan).

[5] = Plasma stability in vitro; format: in vitro ADME, wistar rats; details: 10 μmol/L, 37 °C, up to 120 min
Protocol: Compounds 15p. 15p were weighed and dissolved in DMSO to prepare a master batch with a concentration of 1 mg/mL. The plasma was obtained from wistar male rats, and stored at −20 °C for pending use. The 10 μmol/L of the sample solution to be tested was vortexed and mixed, and rapidly incubated in a 37 °C water bath shaker. The 100 μL of the incubation system was removed at 0 min, 5 min, 10 min, 20 min, 40 min, 60 min, 90 min, and 120 min of the reaction, respectively. The remaining amount of compound was detected (note: each sample was operated three times in parallel). The concentrations of the samples to be measured (15p) in rat plasma were detected by HPLC-MS/MS, and the experimental data were processed and plotted using the computer programs Microsoft Excel (Microsoft 97–2003, Redmond, Washington, DC, USA) and Origin 8.5 (OriginLab, Northampton, MA, USA).

[6] = test system: H22 hepatoma carcinoma cells transplanted tumor; assay: H22 subcutaneous transplanted tumor model, intravenous administration; details: for Tumor Volume (D15): 14 consecutive days; for Tumor Volume (D1): D1 (baseline), mean ± SD; for Tumor Weight: excised at end of administration; for IR (tumor weight inhibition rate): IR = (1 − TWt/TWc) × 100%
Protocol: The anticancer effect of the compound 15p was further evaluated against H22 tumor-bearing mice models by intravenous injection at doses of 2 mg/kg, or 4 mg/kg, two or three times a week, and for 14 consecutive days. Docetaxel (10 mg/kg), plinabulin (4 mg/kg), and cyclophosphamide (20 mg/kg) were used as the positive controls.
Balb/c mice (4–6 weeks old, 16–18 g) were purchased from Shanghai Sippr-BK laboratory animal Co. Ltd. The animal study protocol was approved by Institutional Review Board of Science and Technology Division of Linyi University (review opinion on behalf of the Ethics Committee) (The protocol code is LYU20220107, provided on 10 March 2022). H22 cells were grown in RPMI-1640 midium supplemented with 10% fetal bovine serum, and maintained at 37 °C in humidified 5% CO2. Cells were passaged when they reached 70–80% confluence. Viable H22 cells (1 × 10^7 cells/0.2 ml 0.9% sodium chloride) were injected into the peritoneal cavity of BALB/C mice to trigger ascitic cell growth. Later, cells were harvested and suspended. H22 cancer cells (2 × 10^7 cells/0.1 ml 0.9% sodium chloride cells) were subcutaneously injected into the right flank of each mouse. After implantation, the tumor size was measured with an electronic caliper twice a week, and the tumor volume was calculated according to the following formula: tumor volume (mm^3) = 0.5 × length × width^2. When the tumor volume reached about 130 mm^3, the xenograft tumor-bearing BALB/C mice were randomly placed into six groups at 10 mice per group: vehicle, plinabulin (4 mg/kg), 15p ([…]), 15p ([…]), cyclophosphamide (20 mg/kg) and docetaxel (10 mg/kg) groups. Docetaxel, plinabulin, and cyclophosphamide were chosen as positive control drug. The reference compound docetaxel and cyclophosphamide were completely dissolved in isotonic saline. […] The solution of compound 15p was diluted with the concentrated solution and in isotonic saline at a calculated ratio. The solutions of plinabulin were made up according to similar methods. The mice received intravenous administration (iv) every two or three days for consecutive 14 days. The tumor volumes and the body weights were recorded every two or three days after treatment. At the end of the administration period, the animals were euthanized by dislocation, and the tumor bulks were peeled off conforming to the Guide for the Animal use and Management of Shanghai Medicilon Biological Medicine Co. Ltd. The tumor volume was calculated according to the Principles of Non-clinical Research Techniques for Anti-tumor Drugs of Cytotoxic Drugs by China Food and Drug Administration.

[7] = 2 mg/kg iv, listed as Compound 15p
[8] = 4 mg/kg iv, listed as Compound 15p

Structure (SMILES): C=CCn1cnc(/C=c2\[nH]c(=O)/c(=C/c3cccc(C(=O)c4ccc(F)cc4)c3)[nH]c2=O)c1C(C)C [15p]
- IC50 [1]: 1.03 ± 0.18 nM
- IC50 [2]: 0.81 ± 0.02 nM
- IC50 [3]: 0.67 ± 0.064 nM
- Effect on microtubule networks [4]: microtubule networks were damaged
- Plasma stability [5]: very stable
- Tumor Volume (D15) ([6]; 2 mg/kg iv): 1453.6 mm^3
- Tumor Volume (D15) [6, 7]: 1453.6 ± 909.5 mm^3
- Tumor Volume (D1) ([6]; 2 mg/kg iv): 103.7 ± 29.99 mm^3
- Tumor Weight ([6]; 2 mg/kg iv): 0.82 g
- Tumor Weight [6, 7]: 0.82 ± 0.47 g
- IR (tumor weight inhibition rate) ([6]; 2 mg/kg iv): 27.6%
- Tumor Volume (D15) ([6]; 4 mg/kg iv): 674.5 mm^3
- Tumor Volume (D15) [6, 8]: 674.5 ± 274.0* mm^3
- Tumor Volume (D1) ([6]; 4 mg/kg iv): 102.2 ± 28.62 mm^3
- Tumor Weight ([6]; 4 mg/kg iv): 0.39 g
- Tumor Weight [6, 8]: 0.39 ± 0.22 g
- IR (tumor weight inhibition rate) ([6]; 4 mg/kg iv): 65%
- IR (tumor weight inhibition rate) [6, 8]: 65.2%
- melting point: 200 to 202 °C
